Test results published in US20030180399A1, “Therapeutic/edible compositions comprising herbal ingredients and methods for treating hyperglycemia” (COUNCIL OF SCIENTIFIC & INDUSTRIAL RESEARCH, priority 2002, published 2003).

Columns and labels:
[1] = test system: oral glucose tolerance in rats; experiment: Glucose Tolerance Test (GTT) in rats; format: in vivo, Male albino rats of wistar strains; details: rats loaded with glucose 5 g/kg 2 hours after dosing; P<0.05; glibenclamide 3 mg/Kg
From the text: Brief description of the accompanying drawings: Figure-1. Describes the effect of herbal formulation and glibenclamide on oral glucose tolerance tests in rats. From the above STZ induced diabetic model the composition 1 has chosen for GTT study. Male albino rats of wistar strains (150-200 g) were used. They were divided into three groups each containing 6 rats. They were randomly assigned A) control group B) standard group (glibenclamide) C) test group. Group A was given saline, group B was given glibenclamide (3 mg/Kg) and group C was given test compositions. After 2 hours all rats were loaded with glucose with a dose of 5 g/kg. Blood samples were taken from tail vein of conscious rats for every 30 minutes up to 3 hours. Plasma glucose estimations were done by glucose oxidase method by using Auto Blood Analyzer as described in FIG. 1. The statistical analysis was performed using Prism program (Graphpad software). Annova with post Newman—Keul test with P values was used to compare the treatment efficacy between the test groups.

[2] = test system: STZ induced diabetic model; experiment: Plasma glucose level in streptozocin (STZ) induced diabetic rats, 15 days treatment; format: in vivo, Male albino rats of wistar strains; details: n=6, glibenclamide 3 mg/Kg
Description: Male albino rats of wistar strains (150-200 g) were used throughout the studies. Rats were divided into eleven groups of each containing 6 rats. These animals were randomly assigned to the following groups which include (A) control group, (B) standard group (glibenclamide, 3 mg/Kg) and (C) test groups (F1-F9). Diabetes was induced by injecting streptozocin (STZ) in a dose of 65 mg/kg intra venous in 0.1M citrate buffer. Rats were kept fasted overnight but were given water ad libitum. After 48 hours of STZ injection, blood samples were taken from tail vein of conscious rats. The blood was centrifuged at 5000 rpm for 10 minutes in an eppendorf tubes containing EDTA (1 mg/ml of blood). Plasma glucose estimations were done by glucose oxidase method by using Auto blood analyzer (Techinicon RA-100, Bayer Diagnostics, Ireland). Animals with blood glucose level more than 250% of the fasting level were considered to be diabetic and were used for the experiment. Group A was given normal saline, group B was given glibenclamide and various groups of C were given herbal compositions for 15 days at least once in day. Blood was collected from tail veins of all the rats after 7 days and 15 days of treatment and glucose levels were estimated as described previously (Table 2). The statistical analysis was performed using Prism program (Graphpad software). […]

**Q.** What does the source list for COc1ccc(Cl)cc1C(=O)NCCc1ccc(S(=O)(=O)NC(=O)NC2CCCCC2)cc1 [Glibenclamide]?
**A.** glucose tolerance compared to control group [1]: increased; % reduction in glucose levels ([2]; Day 7th of treatment): 27 ± 2.6%; % reduction in glucose levels ([2]; Day 15th of treatment): 38 ± 2.9%
